Measurements from patent US20090118258A1, “COMBINATION THERAPY COMPRISING ANGIOTENSIN CONVERTING ENZYME INHIBITORS AND VASOPRESSIN RECEPTOR ANTAGONISTS” (priority 2007, published 2009).

Assays:
[1] = tested on: rat remnant kidney model; assay: Rat remnant kidney model of nephropathy (renal mass reduction, RMR); assay type: in vivo; conditions: for serum creatinine / urine protein: 1 and 2 months of treatment, Compound 1 10 and 30 mg/kg/d, FIG. 1; for serum creatinine / urine protein / percentage of sclerotic glomeruli: combination enalapril + Compound 1 30 mg/kg/d; for number of ED 1 positive cells per field (monocytes/macrophages in renal interstitium): termination, vehicle 63±4; for percentage of sclerotic glomeruli: renal histology at termination, Compound 1 10 or 30 mg/kg/d, enalapril, FIG. 2
From the text: The rat remnant kidney model is an animal model of severe progressive renal failure. In this model, a state of severe progressive renal failure is produced by renal mass reduction (RMR) through removal of one kidney and ligation of several branches of the renal artery, resulting in infarction and loss of function of two thirds of the remaining kidney. The procedure creates the conditions of severe hypertension, proteinuria, progressive renal function deterioration, tubulointerstitial damage and glomerulosclerosis (Olson J L, Hostetter T H, Rennke H G, Brenner B M, Venkatachalam M A: “Altered glomerular permselectivity and progressive sclerosis following extreme ablation of renal mass”. Kidney Int 22:112-126, 1982).
Nephropathy is evident as a progressively increasing amount of protein in urine, increases in serum creatinine and increases in arterial pressure. In addition, severe sclerosis of the glomeruli, inflammatory cell infiltration and tubular damage are measurable through histological analysis within 3 months of renal mass reduction (RMR). These measures form the basis for determining efficacy in the model. Urine protein, serum creatinine and arterial pressure are similarly measured in humans to determine impact of treatments on disease progression.
The aim of this study was to evaluate the effects of Compound 1 compared to an ACE inhibitor (enalapril), as well as the combination treatment with Compound 1 and enalapril, on proteinuria and renal disease progression in this model. The effectiveness of these agents has been associated with reductions in proteinuria, slowing of the rate of rise in serum creatinine and reduction in glomerular sclerosis and thus slowing of the progression to end stage renal failure.
(§1) Treatments were started 21 days after RMR, when animals already had overt nephropathy. Treatment groups (n=8/group, except enalapril n=7) included vehicle; Compound 1 at 10 mg/kg/d; Compound 1 at 30 mg/kg/d; enalapril at 15 mg/mL (in drinking water); and enalapril at 15 mg/mL+Compound 1 at 30 mg/kg/d. All compounds were administered in drinking water. An additional sham-operated untreated group was also included. Measurements were made at 21 d after RMR but before treatment, and at one and two months of treatment. […] Since the increased mortality was not dose dependent and was not apparent in the group receiving combination treatment with Compound 1 and enalapril (Table 1), the effect is likely due to chance and the known variability in the severity of renal failure in this model.

[2] = tested on: rat remnant kidney model; assay: Blood pressure in rat remnant kidney model; assay type: in vivo; conditions: Compound 1 10 and 30 mg/kg/d; enalapril; combination enalapril + Compound 1 30 mg/kg/d; FIG. 3
Description: as §1
Blood pressure reduction can contribute to slowing the progression of renal disease in this animal model as well as in humans.

[3] = tested on: rat remnant kidney model; assay: Water intake and diuresis in remnant kidney model; assay type: in vivo; conditions: mean ± S.E.
Description: as §1, with “Treatment groups (n=8/group, except enalapril n=7) included vehicle; Compound 1 at 10 mg/kg/d; Compound 1 at 30 mg/kg/d; enalapril at 15 mg/mL (in drinking water); and enalapril at 15 mg/mL+Compound 1 at 30 mg/kg/d.” left out
(§2) Water intake and diuresis was increased in all treatment groups following RMR (Table 2). […] There were no differences in serum electrolytes in any of the treatment groups at the termination of the experiment (Table 2).

[4] = tested on: rat remnant kidney model; assay: Serum and urine electrolytes in remnant kidney model; assay type: in vivo; conditions: for urinary Na excretion: both doses of Compound 1 (10, 30 mg/kg/d), reduced in vehicle treated RMR rats; for urinary Na excretion / urinary Cl excretion / urinary K excretion: enalapril alone, combination; for urinary Cl excretion / urinary K excretion: both doses of Compound 1, reduced in RMR rats vs control
Description: as §1, §2
Urinary Na excretion was reduced in the vehicle treated RMR rats. […] Urinary K and Cl excretion were reduced in rats with RMR compared to control rats.

[5] = tested on: streptozotocin-induced diabetic rat; assay: Streptozotocin-induced diabetic rat model of nephropathy; assay type: in vivo; conditions: for serum albumin concentrations / kidney weight or renal glomerular or mesangial morphology: 30 mg/kg/d; for kidney weight or renal glomerular or mesangial morphology: compared to vehicle treated diabetic rats
Description: The streptozotocin-induced diabetic rat is a model of Type I diabetes that develops early renal dysfunction manifested as increased urine albumin excretion. One week after administration of streptozotocin, 65 mg/kg, i.p., rats were assigned to the following treatment groups: no treatment; Compound 1 at 30 mg/kg/d; or enalapril at 30 mg/kg/d. Both compounds were dosed in drinking water for 12 weeks. Mortality among the treatment groups at 12 weeks was 1/10 in the untreated and Compound 1-treated groups and 3/10 in the enalapril-treated group. As a result of the diabetic state, urine volumes were nearly 10 times that of non-diabetic rats. […] The fraction of filtered sodium and potassium excreted was unaffected by either Compound 1 and enalapril.

[6] = tested on: Type I diabetic rats; assay: Arterial pressure and heart rate in Type I diabetic rats after seven days oral administration; assay type: in vivo, rat; conditions: oral administration for seven days
Description: Oral administration of Compound 1 for seven days in Type I diabetic rats had no effect on mean arterial pressure or heart rate over 48 h in diabetic rats. […] Oral administration of enalapril for seven days had no effect on arterial pressure over 48 h in diabetic rat

[7] = tested on: db/db mice; assay type: in vivo; conditions: for urinary albumin excretion (in words): 30 mg/kg/d in drinking water for 16 weeks; for mesangial surface area or percentage of glomerular area occupied by mesangium / urine osmolarity: 30 mg/kg/d; for mesangial surface area or percentage of glomerular area occupied by mesangium: compared to vehicle-treated animals; for urine osmolarity: throughout 16 weeks of dosing
Description: Male db/db mice, a genetic model of type 2 diabetes, develop early renal dysfunction manifested as increased urine albumin excretion. At 9 weeks of age diabetes was confirmed by measurement of blood glucose (>300 mg/dL) and animals assigned to one of three treatment groups (n=12/group): untreated, Compound 1, 30 mg/kg/d and enalapril, 30 mg/kg/d. Compounds were dosed in drinking water for 16 weeks. There was no mortality in any of the treatment groups. Body weights for animals were similar at the beginning of the study.

[8] = 1 month of treatment, Compound 1 10 mg/kg/d
[9] = 1 month of treatment, Compound 1 30 mg/kg/d
[10] = 2 month of treatment, Compound 1 10 mg/kg/d
[11] = 2 month of treatment, Compound 1 30 mg/kg/d
[12] = basal (before RMR and treatment), group Compound 1 10 mg/kg/d
[13] = basal (before RMR and treatment), group Compound 1 30 mg/kg/d
[14] = pre-treatment (21 d after RMR), group Compound 1 10 mg/kg/d
[15] = pre-treatment (21 d after RMR), group Compound 1 30 mg/kg/d
[16] = 30 mg/kg/d in drinking water for 12 weeks
[17] = compared to vehicle treated controls
[18] = 1 month of treatment, Enalapril 15 mg/L
[19] = 2 month of treatment, Enalapril 15 mg/L
[20] = basal (before RMR and treatment), group Enalapril 15 mg/L
[21] = pre-treatment (21 d after RMR), group Enalapril 15 mg/L

## COc1cc(C(=O)N2CC[C@]3(C=C(C(=O)O)CC3)Cc3ccccc32)ccc1NC(=O)c1cc(F)ccc1Cl [Compound 1]
[1]; enalapril 15 mg/mL
  serum creatinine: reduced urine protein and serum creatinine when administered alone but not to the same extent as enalapril
  urine protein: reduced urine protein and serum creatinine when administered alone but not to the same extent as enalapril
[1]; Compound 1 10 mg/kg/d, not statistically significant
  number of ED 1 positive cells per field (monocytes/macrophages in renal interstitium): 48±4 positive cells per field
[1]; Compound 1 30 mg/kg/d, not statistically significant
  number of ED 1 positive cells per field (monocytes/macrophages in renal interstitium): 49±10 positive cells per field
[1]; Compound 1 10 and 30 mg/kg/d alone, combination Compound 1 30 mg/kg/d + enalapril, not dose dependent, judged due to chance
  mortality (in words): apparent excess mortality
[1]; rat, in vivo, 10 mg/kg/day, 1 month
  Mortality rate: 2/8
[1]; rat, in vivo, 10 mg/kg/day, 2 months
  Mortality rate: 4/8
[1]; rat, in vivo, 30 mg/kg/day, 1 month
  Mortality rate: 2/8
[1]; rat, in vivo, 30 mg/kg/day, 2 months
  Mortality rate: 3/8
[1]
  percentage of sclerotic glomeruli: tended to decrease the percentage of sclerotic glomeruli compared with vehicle, but this was not statistically significant
[2]
  arterial pressure: significant reductions in arterial pressure compared to vehicle
[3]; [8]
  diuresis: 47 ± 2 mL/24 h
  water intake: 53 ± 9° mL/24 h
[3]; [9]
  diuresis: 41 ± 4 mL/24 h
  water intake: 60 ± 7 mL/24 h
[3]; [10]
  diuresis: 43 ± 5 mL/24 h
  water intake: 62 ± 6 mL/24 h
[3]; [11]
  diuresis: 49 ± 8 mL/24 h
  water intake: 60 ± 16 mL/24 h
[3]; [12]
  diuresis: 19 ± 1 mL/24 h
  water intake: 43 ± 5 mL/24 h
[3]; [13]
  diuresis: 19 ± 1 mL/24 h
  water intake: 47 ± 3 mL/24 h
[3]; [14]
  diuresis: 44 ± 3 mL/24 h
  water intake: 66 ± 5 mL/24 h
[3]; [15]
  diuresis: 55 ± 4 mL/24 h
  water intake: 76 ± 6 mL/24 h
[4]
  urinary Na excretion: tended to normalize urinary Na excretion to similar extents
  urinary Cl excretion: tended to normalize urinary K and Cl excretion
  urinary K excretion: tended to normalize urinary K and Cl excretion
[5]; [16]
  fraction of filtered sodium and potassium excreted: unaffected
  urine endpoints: daily volume output, osmolarity, chloride, creatinine, sodium or potassium concentrations, clearances or excretion values: not significantly altered
[5]; 30 mg/kg/d in drinking water, compared to vehicle treated controls, FIG. 4
  urine albumin excretion: significant decrease
[5]; [17]
  serum albumin concentrations: not statistically significant, serum albumin concentrations increased
[5]
  kidney weight or renal glomerular or mesangial morphology: no significant effects
[5]; Compound 1 30 mg/kg/d
  urine free water clearance: trend toward increased urine free water clearance
[5]; Compound 1 30 mg/kg/d, compared to vehicle treated controls
  serum osmolarity: decreased significantly
[6]
  (mean) arterial pressure over 48 h: no effect
  heart rate over 48 h: no effect
[7]; FIG. 5
  urinary albumin excretion (in words): unaffected
[7]
  mesangial surface area or percentage of glomerular area occupied by mesangium: No significant differences
  urine osmolarity: unaffected by treatment

## CCOC(=O)[C@H](CCc1ccccc1)N[C@@H](C)C(=O)N1CCC[C@H]1C(=O)O [Enalapril, enalapril, reference compound]
[1]; enalapril 15 mg/mL
  serum creatinine: significantly reduced
  urine protein: significantly reduced
[1]; 1 month of treatment, enalapril in drinking water, dead/total
  Mortality rate: 0/7
[1]; 2 month of treatment, enalapril in drinking water, dead/total
  Mortality rate: 1/7
[1]; enalapril 15 mg/mL, statistically significant reduction
  number of ED 1 positive cells per field (monocytes/macrophages in renal interstitium): 38±6 positive cells per field
[1]
  percentage of sclerotic glomeruli: significant reduction
[2]
  arterial pressure: significant reductions in arterial pressure compared to vehicle
[3]; [18]
  diuresis: 46 ± 4 mL/24 h
  water intake: 60 ± 4*° mL/24 h
[3]; [19]
  diuresis: 45 ± 3 mL/24 h
  water intake: 59 ± 6 mL/24 h
[3]; [20]
  diuresis: 19 ± 1 mL/24 h
  water intake: 44 ± 4 mL/24 h
[3]; [21]
  diuresis: 46 ± 5 mL/24 h
  water intake: 66 ± 6 mL/24 h
[4]
  urinary Na excretion: tended to normalize urinary Na excretion to similar extents
  urinary Cl excretion: tended to normalize urinary K and Cl excretion
  urinary K excretion: tended to normalize urinary K and Cl excretion
[4]; compared to vehicle group
  urine chloride ion (Cl−): significantly greater than those in the vehicle group
[5]; [16]
  fraction of filtered sodium and potassium excreted: unaffected
  urine endpoints: daily volume output, osmolarity, chloride, creatinine, sodium or potassium concentrations, clearances or excretion values: not significantly altered
[5]; 30 mg/kg/d in drinking water for 12 weeks, dead/total, untreated 1/10
  Mortality at 12 weeks: 3/10
[5]; [17]
  serum albumin concentrations: not statistically significant, serum albumin concentrations increased
[5]
  kidney weight or renal glomerular or mesangial morphology: no significant effects
[6]
  (mean) arterial pressure over 48 h: no effect
[7]; FIG. 5
  urinary albumin excretion (in words): tended to reduce urine albumin excretion with significant differences observed at 2 weeks and 16 weeks compared to vehicle controls
[7]
  mesangial surface area or percentage of glomerular area occupied by mesangium: No significant differences
  urine osmolarity: unaffected by treatment
[7]; enalapril 30 mg/kg/d in drinking water, over 16 weeks, FIG. 5
  albumin excretion in urine: ≤ 500 ug/24 h
